Results taken from publication PMC13266984 (Journal of medicinal chemistry, 2026).

How the values were obtained:
Human ALDH3A1 = molecular target: T1, Human ALDH3A1 (Homo sapiens, UniProt P30838); assay: ALDH3A1 biochemical assay (benzaldehyde/NADP+, diaphorase-resazurin readout, 1,536-well)
T1 sequence (P30838 1-453): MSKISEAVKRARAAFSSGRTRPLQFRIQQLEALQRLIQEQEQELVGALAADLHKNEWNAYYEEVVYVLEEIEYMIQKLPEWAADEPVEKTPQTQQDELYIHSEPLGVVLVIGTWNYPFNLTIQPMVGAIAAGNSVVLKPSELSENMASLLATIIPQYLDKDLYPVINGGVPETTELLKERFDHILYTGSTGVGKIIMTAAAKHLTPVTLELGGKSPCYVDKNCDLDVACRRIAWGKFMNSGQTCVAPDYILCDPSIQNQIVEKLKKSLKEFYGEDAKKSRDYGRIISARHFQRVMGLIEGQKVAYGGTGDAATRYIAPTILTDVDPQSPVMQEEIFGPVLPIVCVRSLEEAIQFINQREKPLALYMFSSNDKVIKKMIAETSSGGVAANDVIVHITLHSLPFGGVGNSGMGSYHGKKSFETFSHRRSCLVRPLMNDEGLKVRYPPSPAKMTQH

OE19 (3A1) = molecular target: T2, OE19 (3A1) (Homo sapiens, UniProt P30838); assay: Cellular ALDEFLUOR assay in OE19 cells (preferential ALDH3A1 expression)
T2 sequence (P30838 1-453): T1 sequence (P30838 1-453)

[1] = Table S4, biochemical curve class
[2] = Table S5, biochemical curve class

Row | Compound | AC50 (Human ALDH3A1) [nM] | Efficacy (Human ALDH3A1; Table S4, biochemical) | CC-v2 (Human ALDH3A1; [1]) | AC50 (OE19 (3A1)) [nM] | Cell_Efficacy (OE19 (3A1); Table S4, OE19 cells) | Cell_CC-v2 (OE19 (3A1); Table S4, cellular curve class) | Efficacy (Human ALDH3A1; Table S5, biochemical) | CC-v2 (Human ALDH3A1; [2]) | Cell_Efficacy (OE19 (3A1); Table S5, OE19 cells) | Cell_CC-v2 (OE19 (3A1); Table S5, cellular curve class)
1 | COc1ccc(N2CCN(c3nc(C(=O)NCc4cccc(C)c4)cs3)CC2)c(OC)c1 [NCGC01211174-01] | 1150 | -66.83 | -1.2 | 8810 | -87.39 | -1.1 |  |  |  | 
2 | O=C(NC1CC1)c1ccc(CNC(=O)c2csc(N3CCN(c4cccc(C(F)(F)F)c4)CC3)n2)cc1 [NCGC01397384-01] | 1580 |  |  |  |  |  | -41.09 | -1.2 | -16.71 | 4
3 | O=C(NCc1ccc(SC(F)(F)F)cc1)c1csc(N2CCN(c3cccc(C(F)(F)F)c3)CC2)n1 [NCGC01407771-01] | 25.1 |  |  | 3050 |  |  | -94.50 | -1.1 | -89.96 | -1.2
4 | N#Cc1ccc(CNC(=O)c2csc(N3CCN(c4cccc(C(F)(F)F)c4)CC3)n2)cc1F [NCGC01397293-01] | 5.6 |  |  | 766 |  |  | -100.05 | -1.1 | -101.81 | -1.1
5 | Cc1cccc(CNC(=O)c2csc(N3CCN(c4ccc(C5(C#N)CCCC5)cc4)CC3)n2)c1 [NCGC01210598-01] | 1020 | -62.83 | -1.2 | 3930 | -104.17 | -2.1 |  |  |  | 
6 | O=C(NCc1cccc(Oc2ccccc2)c1)c1csc(N2CCN(c3cccc(C(F)(F)F)c3)CC2)n1 [NCGC01407978-01] | 17.8 |  |  | 1530 |  |  | -100.27 | -1.1 | -119.85 | -2.1
7 | O=C(NCc1cccc(CC(F)(F)F)c1)c1csc(N2CCN(c3cccc(C(F)(F)F)c3)CC2)n1 [NCGC01407930-01] | 11.2 |  |  | 860 |  |  | -103.16 | -1.1 | -116.21 | -2.1
8 | COC(=O)c1ccc(N2CCN(c3nc(C(=O)NCc4cccc(C)c4)cs3)CC2)cc1 [NCGC01211115-01] | 1290 | -72.39 | -1.2 | 990 | -81.24 | -1.1 |  |  |  | 
9 | O=C(NCc1cccc(Cl)c1)c1csc(N2CCN(c3cccc(C(F)(F)F)c3)CC2)n1 [NCGC01407982-01] | 23.7 |  |  | 811 |  |  | -97.73 | -1.1 | -88.39 | -1.2
10 | Cc1cccc(CNC(=O)c2csc(N3CCN(c4cccc(Br)c4)CC3)n2)c1 [Compound 10] | 410 | -94.28 | -1.1 | 200 | -86.93 | -1.3 |  |  |  | 
11 | O=C(NCc1cccc(N2CCCC2=O)c1)c1csc(N2CCN(c3cccc(C(F)(F)F)c3)CC2)n1 [NCGC01397385-01] | 708 |  |  | 17800 |  |  | -71.46 | -1.2 | 23.55 | 5
12 | Cc1cccc(CNC(=O)c2csc(N3CCN(c4cccc(OC(F)(F)F)c4)CC3)n2)c1 [NCGC01219289-01] | 730 | -97.63 | -1.1 | 990 | -93.51 | -1.1 |  |  |  | 
13 | O=C(NCc1cccc(C(=O)N2CCCCC2)c1)c1csc(N2CCN(c3cccc(C(F)(F)F)c3)CC2)n1 [NCGC01407977-01] |  |  |  | 50100 |  |  | -16.69 | 4 | -33.22 | 5
14 | COc1c(F)cc(N2CCN(c3nc(C(=O)NCc4cccc(C)c4)cs3)CC2)cc1F [NCGC01211123-01] | 580 | -77.80 | -1.2 | 1760 | -94.45 | -1.2 |  |  |  | 
15 | CC(C)(O)c1ccc(CNC(=O)c2csc(N3CCN(c4cccc(C(F)(F)F)c4)CC3)n2)cc1 [NCGC01408044-01] | 891 |  |  | 11.2 |  |  | -74.78 | -1.2 | -68.37 | 5
16 | Cc1cccc(CNC(=O)c2csc(N3CCN(c4cccc(OCc5ccccc5C)c4)CC3)n2)c1 [NCGC01211373-01] | 360 | -60.22 | -1.2 | 1110 | -85.56 | -1.1 |  |  |  | 
17 | Cc1cccc(CNC(=O)c2csc(N3CCN(c4c(F)cccc4F)CC3)n2)c1 [NCGC01211383-01] | 910 | -88.99 | -1.1 | 15700 | -112.70 | -2.1 |  |  |  | 
18 | O=C(NCc1ccc(-c2ccncc2)nc1)c1csc(N2CCN(c3cccc(C(F)(F)F)c3)CC2)n1 [NCGC01397294-01] | 78.2 |  |  | 8460 |  |  | -73.44 | -1.2 | -106.03 | -1.3
19 | Cc1cccc(CNC(=O)c2csc(N3CCN(c4cccc(Sc5ccc(C)cc5C)c4)CC3)n2)c1 [NCGC01211184-01] |  | -26.97 | 4 | 310 | -95.63 | -1.1 |  |  |  | 
20 | COc1cc(N2CCN(c3nc(C(=O)NCc4cccc(C)c4)cs3)CC2)cc(OC)c1OC [NCGC01211386-01] | 3640 | -76.22 | -1.2 | 9880 | -70.97 | -1.2 |  |  |  | 
21 | CC(=O)c1cccc(CNC(=O)c2csc(N3CCN(c4cccc(C(F)(F)F)c4)CC3)n2)c1 [NCGC01397289-01] | 25.1 |  |  | 342 |  |  | -100.97 | -1.1 | -79.11 | -1.3
22 | Cc1cccc(CNC(=O)c2csc(N3CCN(c4ccc(C#N)cc4)CC3)n2)c1 [NCGC01211190-01] | 1450 | -61.92 | -1.2 | 3510 | -84.69 | -1.1 |  |  |  | 
23 | Cc1ccc(-c2cccc(CNC(=O)c3csc(N4CCN(c5cccc(C(F)(F)F)c5)CC4)n3)c2)cc1 [Compound 19] | 23.7 |  |  | 10.2 |  |  | -83.86 | -1.1 | -77.01 | -1.1
24 | Cc1cccc(CNC(=O)c2csc(N3CCN(c4ccc(F)c(Cl)c4)CC3)n2)c1 [Compound 12] | 510 | -99.84 | -1.1 | 990 | -76.59 | -1.1 |  |  |  | 
25 | O=C(NCc1ccc2c(c1)CNC2=O)c1csc(N2CCN(c3cccc(C(F)(F)F)c3)CC2)n1 [NCGC01397290-02] | 398 |  |  |  |  |  | -53.79 | -1.2 | 0.00 | 5
26 | Cc1cccc(CNC(=O)c2csc(N3CCN(c4c(Cl)cccc4Cl)CC3)n2)c1 [NCGC01211131-01] | 510 | -89.06 | -1.1 | 3130 | -61.19 | -1.4 |  |  |  | 
